Test results reported in US20260262643A1, “HERBICIDAL BENZOXAZINES” (FMC CORPORATION, priority 2022, published 2026).

Key:
[1] = test system: barnyardgrass; experiment: Test C preemergence; type: in vivo, Echinochloa crusgalli
Method in brief: (§1)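 Greenhouse herbicide screen, 10-day duration. Test chemicals in solvent/surfactant blend were sprayed onto soil at sowing (pre) or onto 2–10 cm seedlings at one to two leaves (post); injury scored visually against controls, 0 no effect to 100 complete control.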

[2] = test system: blackgrass; experiment: Test C preemergence; type: in vivo, Alopecurus myosuroides
Method in brief: as §1

[3] = test system: corn; experiment: Test C preemergence; type: in vivo, Zea mays
Method in brief: as §1

[4] = test system: foxtail, giant; experiment: Test C preemergence; type: in vivo, Setaria faberi
Method in brief: as §1

[5] = test system: kochia; experiment: Test C preemergence; type: in vivo, Bassia scoparia
Method in brief: as §1

[6] = test system: oat, wild; experiment: Test C preemergence; type: in vivo, Avena fatua
Method in brief: as §1

[7] = test system: pigweed, palmer; experiment: Test C preemergence; type: in vivo, Amaranthus palmeri
Method in brief: as §1

[8] = test system: ragweed; experiment: Test C preemergence; type: in vivo, Ambrosia artemisiifolia
Method in brief: as §1

[9] = test system: ryegrass, Italian; experiment: Test C preemergence; type: in vivo, Lolium multiflorum
Method in brief: as §1

[10] = test system: soybean; experiment: Test C preemergence; type: in vivo, Glycine max
Method in brief: as §1

[11] = test system: wheat; experiment: Test C preemergence; type: in vivo, Triticum aestivum
Method in brief: as §1

[12] = test system: barnyardgrass; experiment: Test C postemergence; type: in vivo, Echinochloa crusgalli; settings: 10 days, 0 to 100 scale (0 no effect, 100 complete control)
Method in brief: as §1

[13] = test system: blackgrass; experiment: Test C postemergence; type: in vivo, Alopecurus myosuroides; settings: 10 days, 0 to 100 scale (0 no effect, 100 complete control)
Method in brief: as §1

[14] = test system: corn; experiment: Test C postemergence; type: in vivo, Zea mays; settings: 10 days, 0 to 100 scale (0 no effect, 100 complete control)
Method in brief: as §1

[15] = test system: foxtail, giant; experiment: Test C postemergence; type: in vivo, Setaria faberi; settings: 10 days, 0 to 100 scale (0 no effect, 100 complete control)
Method in brief: as §1

[16] = test system: kochia; experiment: Test C postemergence; type: in vivo, Bassia scoparia; settings: 10 days, 0 to 100 scale (0 no effect, 100 complete control)
Method in brief: as §1

[17] = test system: oat, wild; experiment: Test C postemergence; type: in vivo, Avena fatua; settings: 10 days, 0 to 100 scale (0 no effect, 100 complete control)
Method in brief: as §1

[18] = test system: pigweed, palmer; experiment: Test C postemergence; type: in vivo, Amaranthus palmeri; settings: 10 days, 0 to 100 scale (0 no effect, 100 complete control)
Method in brief: as §1

[19] = test system: ragweed; experiment: Test C postemergence; type: in vivo, Ambrosia artemisiifolia; settings: 10 days, 0 to 100 scale (0 no effect, 100 complete control)
Method in brief: as §1

[20] = test system: ryegrass, Italian; experiment: Test C postemergence; type: in vivo, Lolium multiflorum; settings: 10 days, 0 to 100 scale (0 no effect, 100 complete control)
Method in brief: as §1

[21] = test system: soybean; experiment: Test C postemergence; type: in vivo, Glycine max; settings: 10 days, 0 to 100 scale (0 no effect, 100 complete control)
Method in brief: as §1

[22] = test system: wheat; experiment: Test C postemergence; type: in vivo, Triticum aestivum; settings: 10 days, 0 to 100 scale (0 no effect, 100 complete control)
Method in brief: as §1

[23] = test system: galium; experiment: Test C postemergence; type: in vivo, Galium aparine; settings: 10 days, 0 to 100 scale (0 no effect, 100 complete control)
Method in brief: as §1

[24] = test system: horseweed; experiment: Test C postemergence; type: in vivo, Erigeron canadensis; settings: 10 days, 0 to 100 scale (0 no effect, 100 complete control)
Method in brief: as §1

[25] = test system: barnyardgrass; experiment: Test D flooded paddy test; type: in vivo, Echinochloa crus-galli; settings: 250 g ai/ha, applied to paddy water, visual rating after 13 to 14 days, scale 0 to 100 (0 no effect, 100 complete control)
Method in brief: (§2)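 Visual ratings from 0, meaning no effect, to 100, meaning complete control, were assigned against untreated controls 13 to 14 days after compounds were added to the floodwater of pots kept 3 cm deep, with plants at the 2-leaf stage.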

[26] = test system: ducksalad; experiment: Test D flooded paddy test; type: in vivo, Heteranthera limosa; settings: 250 g ai/ha, applied to paddy water, visual rating after 13 to 14 days, scale 0 to 100 (0 no effect, 100 complete control)
Method in brief: as §2

[27] = test system: rice; experiment: Test D flooded paddy test; type: in vivo, Oryza sativa; settings: 250 g ai/ha, applied to paddy water, visual rating after 13 to 14 days, scale 0 to 100 (0 no effect, 100 complete control)
Method in brief: as §2

[28] = test system: sedge, umbrella; experiment: Test D flooded paddy test; type: in vivo, Cyperus difformis; settings: 250 g ai/ha, applied to paddy water, visual rating after 13 to 14 days, scale 0 to 100 (0 no effect, 100 complete control)
Method in brief: as §2

[29] = 500 g ai/ha, preemergence, 0 to 100 scale (0 no effect, 100 complete control)
[30] = Preemergence, 125 g ai/ha, 0 to 100 scale, 0 no effect, 100 complete control

Q: With `Cc1cccc2c1OC(C(F)(F)F)CN2C(=O)c1ccnc(-n2cnc(C(C)C)n2)c1` (single isomer, unassigned) [Compound 320] as the molecule, how does the “Barnyardgrass plant response rating” value [1, 29] read?
A: The value was 80.

Q: And the “Plant response rating, Barnyardgrass” value [1, 30]?
A: The value was 30.

Q: What about the “Blackgrass plant response rating” value [2, 29] of the same molecule?
A: The value was 60.

Q: And the “Plant response rating, Blackgrass” value [2, 30]?
A: The value was 0.

Q: What about the “Corn plant response rating” value [3, 29] of the same molecule?
A: Its value is 30.

Q: And the “Plant response rating, Corn” value [3, 30]?
A: The value was 30.

Q: What about the “Foxtail, Giant plant response rating” value [4, 29] of the same molecule?
A: The value was 90.

Q: And the “Plant response rating, Foxtail, Giant” value [4, 30]?
A: Its value is 20.

Q: What about the “Kochia plant response rating” value [5, 29] of the same molecule?
A: The value was 10.

Q: And the “Plant response rating, Kochia” value [5, 30]?
A: The value was 10.

Q: What about the “Oat, Wild plant response rating” value [6, 29] of the same molecule?
A: Its value is 40.

Q: And the “Plant response rating, Oat, Wild” value [6, 30]?
A: The value was 10.

Q: And the “Pigweed, Palmer plant response rating” value [7, 29]?
A: Its value is 100.

Q: And the “Plant response rating, Pigweed, Palmer” value [7, 30]?
A: Its value is 20.

Q: What about the “Ragweed plant response rating” value [8, 29] of the same molecule?
A: Its value is 0.

Q: What about the “Plant response rating, Ragweed” value [8, 30] of the same molecule?
A: Its value is 0.

Q: And the “Ryegrass, Italian plant response rating” value [9, 29]?
A: Its value is 90.

Q: What about the “Plant response rating, Ryegrass, Italian” value [9, 30] of the same molecule?
A: Its value is 80.

Q: What about the “Soybean plant response rating” value [10, 29] of the same molecule?
A: Its value is 100.

Q: And the “Plant response rating, Soybean” value [10, 30]?
A: The value was 10.

Q: What about the “Wheat plant response rating” value [11, 29] of the same molecule?
A: The value was 90.

Q: What about the “Plant response rating, Wheat” value [11, 30] of the same molecule?
A: The value was 20.

Q: What about the “Plant response rating, Barnyardgrass” value ([12]; 500 g ai/ha, postemergence) of the same molecule?
A: Its value is 20.

Q: And the “Plant response rating, Barnyardgrass” value ([12]; Postemergence, 125 g ai/ha)?
A: Its value is 0.

Q: And the “Plant response rating, Blackgrass” value ([13]; 500 g ai/ha, postemergence)?
A: Its value is 10.

Q: And the “Plant response rating, Blackgrass” value ([13]; Postemergence, 125 g ai/ha)?
A: The value was 0.

Q: And the “Plant response rating, Corn” value ([14]; 500 g ai/ha, postemergence)?
A: Its value is 40.

Q: And the “Plant response rating, Corn” value ([14]; Postemergence, 125 g ai/ha)?
A: Its value is 10.

Q: What about the “Plant response rating, Foxtail, Giant” value ([15]; 500 g ai/ha, postemergence) of the same molecule?
A: Its value is 40.

Q: And the “Plant response rating, Foxtail, Giant” value ([15]; Postemergence, 125 g ai/ha)?
A: Its value is 20.

Q: And the “Plant response rating, Kochia” value ([16]; 500 g ai/ha, postemergence)?
A: The value was 80.

Q: What about the “Plant response rating, Kochia” value ([16]; Postemergence, 125 g ai/ha) of the same molecule?
A: Its value is 40.

Q: And the “Plant response rating, Oat, Wild” value ([17]; 500 g ai/ha, postemergence)?
A: The value was 10.

Q: What about the “Plant response rating, Oat, Wild” value ([17]; Postemergence, 125 g ai/ha) of the same molecule?
A: The value was 10.

Q: And the “Plant response rating, Pigweed, Palmer” value ([18]; 500 g ai/ha, postemergence)?
A: Its value is 50.

Q: And the “Plant response rating, Pigweed, Palmer” value ([18]; Postemergence, 125 g ai/ha)?
A: The value was 0.

Q: And the “Plant response rating, Ragweed” value ([19]; 500 g ai/ha, postemergence)?
A: Its value is 50.

Q: What about the “Plant response rating, Ragweed” value ([19]; Postemergence, 125 g ai/ha) of the same molecule?
A: Its value is 0.

Q: And the “Plant response rating, Ryegrass, Italian” value ([20]; 500 g ai/ha, postemergence)?
A: Its value is 30.

Q: What about the “Plant response rating, Ryegrass, Italian” value ([20]; Postemergence, 125 g ai/ha) of the same molecule?
A: The value was 20.

Q: What about the “Plant response rating, Soybean” value ([21]; 500 g ai/ha, postemergence) of the same molecule?
A: The value was 100.

Q: And the “Plant response rating, Soybean” value ([21]; Postemergence, 125 g ai/ha)?
A: The value was 50.

Q: And the “Plant response rating, Wheat” value ([22]; 500 g ai/ha, postemergence)?
A: The value was 30.

Q: What about the “Plant response rating, Wheat” value ([22]; Postemergence, 125 g ai/ha) of the same molecule?
A: Its value is 10.

Q: And the “Plant response rating, Galium” value ([23]; 500 g ai/ha, postemergence)?
A: The value was 70.

Q: What about the “Plant response rating, Galium” value ([23]; Postemergence, 125 g ai/ha) of the same molecule?
A: Its value is 50.

Q: And the “Plant response rating, Horseweed” value ([24]; 500 g ai/ha, postemergence)?
A: The value was 40.

Q: What about the “Plant response rating, Horseweed” value ([24]; Postemergence, 125 g ai/ha) of the same molecule?
A: The value was 10.

Q: And the “Plant response rating, Barnyardgrass (Flood)” value [25]?
A: Its value is 0.

Q: What about the “Plant response rating, Ducksalad (Flood)” value [26] of the same molecule?
A: The value was 0.

Q: What about the “Plant response rating, Rice (Flood)” value [27] of the same molecule?
A: The value was 0.

Q: What about the “Plant response rating, Sedge, Umbrella (Flood)” value [28] of the same molecule?
A: Its value is 0.
